Measurements from PMC12598866, “A Comparative Study of Virucidal and Virustatic Multivalent Entry Inhibitors” (The Journal of Physical Chemistry. B, 2025).
Read-outs that look alike come from different tables or passages of the source.

Assays:
HSV-2 [1] = assay: HSV-2 virucidal assay; format: cell-based, herpes simplex virus type 2; conditions: virucidal titration at 90–99% viral inhibition concentration, Vero cells
HSV-1 [2] = test system: HSV-1
HSV-1 [3] = assay: HSV-1 inhibition assay (plaque reduction on Vero cells); format: cell-based, herpes simplex virus type 1; conditions: Human alphaherpesvirus 1, dose–response
Protocol: The inhibitory effect of compounds on HSV-1 was evaluated by plaque reduction assay. Vero cells were plated 24 h before the experiment in 24-well plates at a density of 10^5 cells/well. Serial dilutions of compounds in DMEM medium (2% FBS, 1% P/S) were prepared, followed by the addition of aliquots of HSV-1 such that the final titer of the virus is […] (with MOI = 0.0005). Compounds/virus mixtures were incubated at 37 °C for 1 h and added to the cells (250 μL/well). Followed by incubation at 37 °C for 1 h, the viral inoculum was removed. The cells were overlaid with DMEM medium containing 1.2% methylcellulose, 2% FBS, and 1% P/S. After 3 days of incubation at 37 °C, 5% CO2, the cells were fixed and stained with 0.1% crystal violet in 20% ethanol, and plaques were counted. Each group of experiments in the inhibition assay was performed in triplicate. The concentration producing a 50% reduction in plaque formation was determined using the Prism 10 software (GraphPad Software, USA) by comparing compound-treated and untreated cells. Infectivity was calculated as the number of plaques in compound-treated cells/number of plaques in untreated cells × 100%.

[4] = Cytotoxicity assay for MDCK (MTT); format: cell-based; conditions: dog, MDCK cells
Protocol: MTT assay was used to evaluate the cytotoxicity on MDCK cells. 10^4 cells per well were seeded in a 96-well plate 1 day before the assay. A dose range of each drug (from 4.11 μM to 1000 μM) was added to the cells in serum-free medium for MDCK cells. The antivirals were incubated on the cells for 24 h at 37 °C. After incubation, the cells were washed, and MTT reagent (Promega) was added to the cells for 4 h at 37 °C according to the manufacturer’s instructions. The cells were then washed, and 50 μL of DMSO was added to free the reagent. Subsequently, the absorbance was read at 579 nm. Percentages of viability were calculated by comparing the absorbance in treated wells and untreated conditions.

HSV-2 [5] = assay: Growth of viruses in the presence of compounds (posttreatment), HSV-2; format: cell-based, herpes simplex virus type 2; conditions: posttreatment condition, Vero cells
[6] = CMC assay (conductivity method); format: physicochemical; conditions: in water
Protocol: The CMC of antiviral compounds was measured by the conductivity method. Antiviral compounds were diluted into water at different concentrations, and the conductivity (μS/cm) was measured at each concentration with a conductivity meter (Mettler Toledo, Switzerland). The CMC was identified as the point on the conductivity-concentration plot where the slope changed.

[7] = Cytotoxicity assay on Vero cells (MTS); format: cell-based; conditions: African green monkey
Protocol: Cytotoxicity assay was performed on the Vero cell line with the MTS assay. The cells were plated for 24 h in DMEM medium containing 10% FBS and 1% penicillin/streptomycin with a seeding density of 2 × 10^4 per well in a 96-well plate. […] Then, the cells were washed with PBS twice, followed by the addition of 20 μL MTS reagents together with 80 μL DMEM medium. They were then incubated at 37 °C for 4 h. The cell viability was checked by absorbance at 490 nm with a plate reader.

[8] = Partition coefficient octanol/water (UV-vis); format: physicochemical
Protocol: UV–vis spectroscopy was employed first to determine the correct dilution of all compounds. The seven compounds in this study were B3C11SO4, B3C11SO3, B3C6SO3, B3C6SO4, C4C11SO4, C4C11SO3, and C4C3SO3. The protocol is the same for all the compounds: in the beginning, all compounds were dissolved in water at a concentration of 1 mg/mL. The solution was put into a quartz cuvette and then into the UV–vis spectrometer, where the absorbance from wavelengths 600 to 190 nm was investigated. All of the samples presented a peak in absorbance around 200 nm. The samples were diluted further until the absorbance peak reached values near 0.90.
A biphasic solution composed of 1.5 mL of a water solution of antiviral +1.5 mL of octanol was thoroughly mixed for 60 min. After the mixing, the two phases were separated by centrifugation for 1 min using a benchtop centrifuge at 5000 rpm. The water phase saturated in octanol and the octanol phase saturated with water were extracted and characterized by UV–vis spectrometry.
The partition coefficient (log P) was then calculated using formula : logP=log(Absorbanceofoctanolphase/Absorbanceofwaterphase) 1

HSV-2 [9] = assay: HSV-2 inhibition assay (plaque reduction on Vero cells, pretreatment); format: cell-based, herpes simplex virus type 2; conditions: Human alphaherpesvirus 2, Vero, pretreatment condition
H3N2 = assay: Influenza inhibition assay (ICC on MDCK cells, pretreatment); format: cell-based; conditions: Influenza A virus
[10] = biological target: glycoprotein D (gD) of HSV; assay: Isothermal titration calorimetry with glycoprotein D; format: binding; conditions: ITC, 25°C
Protocol: Isothermal titration calorimetry (ITC) experiments were conducted using ITC200 instruments (GE Healthcare, USA) equipped with a 200 μL sample cell and a 40 μL syringe. Thirteen injections were applied. The first data point was excluded. BSA protein and viral protein concentrations in the cell were approximately 50 μM and 1 mg/mL, respectively, and ligand concentrations in the syringe were roughly 2 mM. They were centrifuged at 2000g for 2 min to remove bubbles. The titration was performed at 25 or 37 °C, with data analyzed using MicroCal PEAQ ITC software. Baseline correction was applied, and Nitpic/Sedphat was used for automated integration to ensure precise binding parameter determination.

H1N1 clinical = assay: Influenza inhibition assay (ICC on MDCK cells); format: cell-based; conditions: Influenza A virus, dose–response
BSA = biological target: T1, BSA (Bos taurus, UniProt P02769); assay: Isothermal titration calorimetry with BSA; format: binding, bovine; conditions: ITC, H2O
T1 construct: purchased Sigma-Aldrich

Flu B = assay: Influenza inhibition assay (ICC on MDCK cells); format: cell-based; conditions: dose–response
H1N1N09 = assay: Influenza inhibition assay (ICC on MDCK cells); format: cell-based, Influenza A/Netherlands/602/2009 (H1N1); conditions: Influenza A virus, dose–response
HSV-2 [11] = assay: HSV-2 inhibition assay (plaque reduction on Vero cells, pretreatment); format: cell-based, herpes simplex virus type 2; conditions: for IC50: Human alphaherpesvirus 2, Vero, dose–response, Vero cells; for IC99: HSV-2 inhibition, concentration intended to inhibit infection by at least 90 and 99%
Protocol: The inhibitory effect of compounds on HSV-2 was evaluated by plaque reduction assay. Vero cells were plated 24 h before the experiment in 24-well plates with a seeding density of 10^5 cells/well. Serial dilutions of compounds in DMEM medium (2% FBS, 1% P/S) were prepared, followed by the addition of aliquots of HSV-2 such that the final titer of the virus was 200 pfu/mL (with MOI = 0.0005). Compounds/virus mixtures were incubated at 37 °C for 1 h and added to the cells (250 μL/well). Followed by incubation at 37 °C for 1 h, the viral inoculum was removed. The cells were overlaid with DMEM medium containing 1.2% methylcellulose, 2% FBS, and 1% P/S. After 48 h of incubation at 37 °C, 5% CO2, the cells were fixed and stained with 0.1% crystal violet in 20% ethanol. Finally, the plaques were counted. Each group of experiments in the inhibition assay was performed in triplicate. The concentration producing a 50% reduction in plaque formation was determined using Prism 10 software (GraphPad Software, USA) by comparing compound-treated and untreated cells. Infectivity was calculated as the number of plaques in compound-treated cells/number of plaques in untreated cells × 100%.

HSV-2 [12] = test system: HSV-2; parameters: method as in Zhu et al., 2024 (citation number not given); conditions: earlier paper of the authors on benzene-core MEIs; ref Zhu et al., 2024 (citation number not given); read-out: IC50 against HSV-2; cited from earlier work
[13] = dose–response, read-out: IC50 H3N2
[14] = pretreatment condition, read-out: pretreatment IC50, H3N2

T1 sequence (P02769 25-607): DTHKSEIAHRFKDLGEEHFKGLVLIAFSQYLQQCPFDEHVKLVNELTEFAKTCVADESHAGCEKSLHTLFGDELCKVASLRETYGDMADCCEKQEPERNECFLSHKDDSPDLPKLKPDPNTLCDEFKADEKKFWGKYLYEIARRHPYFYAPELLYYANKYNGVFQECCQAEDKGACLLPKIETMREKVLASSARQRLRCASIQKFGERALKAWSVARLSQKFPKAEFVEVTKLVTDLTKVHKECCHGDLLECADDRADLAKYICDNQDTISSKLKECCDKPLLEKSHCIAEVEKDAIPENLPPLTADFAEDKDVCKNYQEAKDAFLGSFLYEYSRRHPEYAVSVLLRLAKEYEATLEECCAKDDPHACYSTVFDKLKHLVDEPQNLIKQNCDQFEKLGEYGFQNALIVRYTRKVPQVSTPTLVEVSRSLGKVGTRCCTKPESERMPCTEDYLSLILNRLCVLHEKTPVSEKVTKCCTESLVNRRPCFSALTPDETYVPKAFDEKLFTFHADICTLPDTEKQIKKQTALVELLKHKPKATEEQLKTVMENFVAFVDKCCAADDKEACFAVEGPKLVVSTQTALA

SMILES | Virucidal activity, HSV-2 (HSV-2 [1]) | Virucidal activity, V-1 (HSV-1 [2]) | IC50 (HSV-1 [3]) | CC50 at 24 h [4] | IC50 (HSV-2 [5]; Human alphaherpesvirus 2, Vero) | CMC [6] | CC50 at 48 h [7] | logP [8] | IC50 (HSV-2 [9]) | IC50 (H3N2; [13]) | IC50 (H3N2; [14]) | Kd [10] | IC50 (H1N1 clinical) | N (binding sites, BSA) (BSA; 25 °C (Table 5)) | ΔG (BSA) (BSA; 25 °C (Table 5)) | ΔH (BSA) (BSA; 25 °C (Table 5)) | –ΔTS (BSA) (BSA; 25 °C (Table 5)) | IC50 (Flu B) | IC50 (H1N1N09) | IC50 (HSV-2 [11]) | further results
O=S(=O)(O)CCCCCCSCc1cc(CSCCCCCCS(=O)(=O)O)cc(CSCCCCCCS(=O)(=O)O)c1 [B3C6SO3] | S | S | 502.3 ± 2.15 µM | > 1000 µM | 180 µM | 882.2 ± 18.9 µM | > 1000 µM | -2.39 | 487 µM | > 1000 µM | > 1000 µM | 14.2 µM | > 1000 µM | no binding | no binding | no binding | no binding | > 1000 µM | > 1000 µM | 487.3 ± 2.19 µM | IC50 (HSV-2 [5]): 181 ± 2.06 µM; K d (BSA) (BSA; 25 °C (Table 5)): no binding
O=S(=O)(O)OCCCCCCSCc1cc(CSCCCCCCOS(=O)(=O)O)cc(CSCCCCCCOS(=O)(=O)O)c1 [B3C6SO4] | – | – | 208 ± 31.4 µM | > 1000 µM | 56.9 ± 1.48 µM | 1390 ± 45.6 µM | > 1000 µM | -1.79 | 52.9 ± 1.9 µM | > 1000 µM | 346.9 ± 1.94 µM | 28.1 µM | > 1000 µM | – | – | – | – | > 1000 µM | 346.9 ± 1.94 µM | 52.9 ± 1.9 µM | IC50 (HSV-2 [12]): 78.4 µM; -∆TS (BSA) (BSA; 25 °C (Table S3)): 7.2 kcal/mol; Kd (BSA; 25 °C (Table S3)): 7.27 µM; N (BSA) (BSA; 25 °C (Table S3)): 1.69; ∆G (BSA) (BSA; 25 °C (Table S3)): -7.29 kcal/mol; ∆H (BSA) (BSA; 25 °C (Table S3)): -14.5 kcal/mol; -∆TS (BSA) (BSA; 37 °C (Table S3)): 0.938 kcal/mol; Kd (BSA; 37 °C (Table S3)): 1.4 µM; N (BSA) (BSA; 37 °C (Table S3)): 1.3; ∆G (BSA) (BSA; 37 °C (Table S3)): -7.99 kcal/mol; ∆H (BSA) (BSA; 37 °C (Table S3)): -8.93 kcal/mol; IC99 (HSV-2 [11]): 1328 ± 1.9 µM
O=S(=O)(O)CCCSCc1cc2c(cc1CSCCCS(=O)(=O)O)OCCOCCOc1cc(CSCCCS(=O)(=O)O)c(CSCCCS(=O)(=O)O)cc1OCCOCCO2 [C4C3SO3] | S | S | 551.9 ± 2 µM | > 1000 µM | 69.1 ± 1.01 µM | 462.69 ± 57 µM | > 1000 µM | -2.45 | 173.4 ± 1.1 µM | > 1000 µM | > 1000 µM | – | – | 0.5 | –5.73 kcal/mol | –7.34 kcal/mol | 1.61 kcal/mol | > 1000 µM | > 1000 µM | 173.4 ± 1.1 µM | Kd (BSA; 25 °C (Table 5), read-out: K d (BSA)): 63 µM; -∆TS (BSA) (BSA; 25 °C (Table S3)): 1.61 kcal/mol; N (BSA) (BSA; 25 °C (Table S3)): 0.5; ∆G (BSA) (BSA; 25 °C (Table S3)): -5.73 kcal/mol; ∆H (BSA) (BSA; 25 °C (Table S3)): -7.34 kcal/mol; -∆TS (BSA) (BSA; 37 °C (Table S3)): 24.6 kcal/mol; Kd (BSA; 37 °C (Table S3)): 52.1 µM; N (BSA) (BSA; 37 °C (Table S3)): 0.397; ∆G (BSA) (BSA; 37 °C (Table S3)): -6.08 kcal/mol; ∆H (BSA) (BSA; 37 °C (Table S3)): -30.6 kcal/mol; IC99 (HSV-2 [11]): 446 ± 1.1 µM
